Experimental data taken from ChEMBL document CHEMBL5137013 (Eur J Med Chem, 2022).
Calls of active or inactive are those of the source. No cut-off for these calls is given here.

Experiments:
HT-29 [1] = assay: Cell cycle arrest in human HT-29 cells assessed as effect on cdc2 expression at 25 to 100 nM measured after 24 hrs by Western blot analysis; type: functional, cell-based; details: dose 25-100 nM
A549 [2] = assay: Antimigratory activity against human A549 cells assessed as reduction in scratch wound recovery at 60 nM measured after 24 hrs by scratch wound healing assay relative to control; type: functional; parameters: scale not given: the % may be the effect or the level left
Tubulin (Homo sapiens) [3] = target: T1, Tubulin (Homo sapiens) (UniProt P68371+Q9H4B7+P0DPH7+P68366+Q13509+Q71U36+P04350+Q3ZCM7+P07437+P68363+Q9BQE3+Q6PEY2+Q13885+Q9BVA1+Q9BUF5); assay: Displacement of [3H] colchicine from tubulin (unknown origin) at 5 uM measured after 2 hrs by scintillation counting analysis relative to control; type: protein-complex assay
HeLa = assay: Cytotoxicity against human HeLa cells assessed as reduction in cell viability measured after 24 hrs by MTT assay; type: functional, cell-based
HT-29 [4] = assay: Inhibition of colony formation in human HT-29 cells at 100 nM measured after 24 hrs by crystal violet staining based assay; type: functional
Tubulin (Homo sapiens) [5] = target: T1, Tubulin (Homo sapiens); assay: Displacement of [3H] colchicine from tubulin (unknown origin) at 2.5 uM measured after 2 hrs by scintillation counting analysis relative to control; type: protein-complex assay
Tubulin (Homo sapiens) [6] = target: T1, Tubulin (Homo sapiens); assay: Inhibition of tubulin polymerization in human HT-29 cells assessed as up regulation of detyrosinated-alpha-tubulin expression at 25 to 100 nM measured after 24 hrs by Western blot analysis; type: cell-based; details: dose 25-100 nM
HT-29 [7] = assay: Cell cycle arrest in human HT-29 cells assessed as effect on cdc25 expression at 25 to 100 nM measured after 24 hrs by Western blot analysis; type: functional, cell-based; details: dose 25-100 nM
HT-29 [8] = assay: Cell cycle arrest in human HT-29 cells assessed as effect on cyclin B1 expression at 25 to 100 nM measured after 24 hrs by Western blot analysis; type: functional, cell-based; details: dose 25-100 nM
HT-29 [9] = assay: Antitumor activity against human HT-29 cells xenografted in ip dosed BALB/c nude mouse assessed as tumor growth inhibition administered at 2 days interval for 3 weeks; type: functional, organism-based; details: DDE = dose-dependent effect
Tubulin (Homo sapiens) [10] = target: T1, Tubulin (Homo sapiens); assay: Inhibition of tubulin polymerization in human HT-29 cells assessed as up regulation of acetylated-alpha-tubulin expression at 25 to 100 nM measured after 24 hrs by Western blot analysis; type: cell-based; details: dose 25-100 nM
HT-29 [11] = assay: Induction of mitochondrial dysfunction in human HT-29 cells assessed as reduction in red fluorescence intensity measured after 24 hrs by JC-1 staining based JC-1 dye based confocal laser scanning microscopy; type: functional, cell-based; details: dose 25-100 nM, DDE = dose-dependent effect
A549 [12] = assay: Antimigratory activity against human A549 cells assessed as reduction in scratch wound recovery measured after 24 hrs by scratch wound healing assay; type: functional, cell-based; details: dose 15-250 nM, DDE = dose-dependent effect
[13] = Cmax in Sprague-Dawley rat at 10 mg/kg, iv by HPLC-MS/MS analysis; type: ADME, organism-based; parameters: dose 10 mg/kg, route iv; details: in vivo
A549 [14] = assay: Antimigratory activity against human A549 cells assessed as reduction in number of penetrated cells at 12.5 to 100 nM measured after 24 hrs by crystal violet staining based transwell assay; type: functional, cell-based; details: dose 12.5-100 nM
HT-29 [15] = assay: Cytotoxicity against human HT-29 cells assessed as reduction in cell viability measured after 24 hrs by MTT assay; type: functional, cell-based; details: HT-29, 24 h
HT-29 [16] = assay: Induction of apoptosis in human HT-29 cells assessed as increase in cleaved caspase-3 expression at 25 to 100 nM measured after 24 hrs by Western blot analysis; type: functional, cell-based; details: dose 25-100 nM
HT-29 [17] = assay: Induction of apoptosis in human HT-29 cells assessed as up regulation of Bcl-2 expression at 25 to 100 nM measured after 24 hrs by Western blot analysis; type: functional, cell-based; details: dose 25-100 nM
HT-29 [18] = assay: Cell cycle arrest in human HT-29 cells assessed as increase in cell accumulation at G2/M phase measured after 24 hrs by propidium iodide staining based flow cytometry; type: functional; details: dose 12.5-100 nM, DDE = dose-dependent effect
HT-29 [19] = assay: Induction of mitochondrial dysfunction in human HT-29 cells assessed as increase in green fluorescence intensity measured after 24 hrs by JC-1 staining based JC-1 dye based confocal laser scanning microscopy; type: functional, cell-based; details: dose 25-100 nM, DDE = dose-dependent effect
[20] = AUC in Sprague-Dawley rat at 10 mg/kg, iv by HPLC-MS/MS analysis; type: ADME, organism-based; parameters: dose 10 mg/kg, route iv; details: in vivo
[21] = Clearance in Sprague-Dawley rat at 10 mg/kg, iv by HPLC-MS/MS analysis; type: ADME, organism-based; details: in vivo
Tubulin (Homo sapiens) [22] = target: T1, Tubulin (Homo sapiens); assay: Induction of microtubule disruption in human HT-29 cells measured after 6 hrs by immunofluorescence assay; type: cell-based; details: dose 25-100 nM, DDE = dose-dependent effect
HT-29 [23] = assay: Induction of apoptosis in human HT-29 cells assessed as increase in cleaved caspase-9 expression at 25 to 100 nM measured after 24 hrs by Western blot analysis; type: functional, cell-based; details: dose 25-100 nM
MCF7 = assay: Cytotoxicity against human MCF7 cells assessed as reduction in cell viability measured after 24 hrs by MTT assay; details: MCF7, 24 h
[24] = Toxicity in human HT-29 cells xenografted BALB/c nude mouse assessed as effect on lung at 5 to 10 mg/kg, ip administered as 2 days interval for 3 weeks and measured 3 weeks post-initial dosing by H and E staining based histopathological analysis; type: organism-based; details: in vivo, 504 h, dose 5-10 mg/kg
[25] = Toxicity in human HT-29 cells xenografted BALB/c nude mouse assessed as effect on liver at 5 to 10 mg/kg, ip administered as 2 days interval for 3 weeks and measured 3 weeks post-initial dosing by H and E staining based histopathological analysis; type: organism-based; details: in vivo, 504 h, dose 5-10 mg/kg
[26] = Tmax in Sprague-Dawley rat at 10 mg/kg, iv by HPLC-MS/MS analysis; type: ADME, organism-based; details: in vivo
HT-29 [27] = assay: Cell cycle arrest in human HT-29 cells assessed as cell accumulation at G2/M phase at 100 nM measured after 24 hrs by propidium iodide staining based flow cytometry (reference value: 20.9%); type: functional
[28] = Resistance index, ratio of IC50 for human A549/TxR cells to IC50 for human A549 cells; type: functional
HT-29 [29] = assay: Antitumor activity against human HT-29 cells xenografted in BALB/c nude mouse assessed as reduction in tumor weight at 10 mg/kg, ip administered as 2 days interval for 3 weeks and measured 3 weeks post-initial dosing relative to control; type: functional; parameters: scale not given: the % may be the effect or the level left
[30] = Toxicity in human HT-29 cells xenografted BALB/c nude mouse assessed as effect on kidney at 5 to 10 mg/kg, ip administered as 2 days interval for 3 weeks and measured 3 weeks post-initial dosing by H and E staining based histopathological analysis; type: organism-based; details: in vivo, 504 h, dose 5-10 mg/kg
[31] = Cytotoxicity against human MCF7/TxR cells assessed as reduction in cell viability measured after 24 hrs by MTT assay; type: functional, cell-based
[32] = Resistance index, ratio of IC50 for human MCF7/TxR cells to IC50 for human MCF7 cells; type: functional
HT-29 [33] = assay: Cell cycle arrest in human HT-29 cells assessed as effect on cdk7 expression at 25 to 100 nM measured after 24 hrs by Western blot analysis; type: functional, cell-based; details: dose 25-100 nM
HT-29 [34] = assay: Induction of apoptosis in human HT-29 cells at 25 to 100 nM measured after 24 hrs by Annexin V-FITC/propidium iodide staining based flow cytometry; type: functional, cell-based; details: dose 25-100 nM
HT-29 [35] = assay: Induction of ROS generation in human HT-29 cells measured after 24 hrs by DCFH-DA dye based confocal laser scanning microscopy; type: functional, cell-based; details: dose 25-100 nM, DDE = dose-dependent effect
HT-29 [36] = assay: Inhibition of colony formation in human HT-29 cells at 12.5 nM measured after 24 hrs by crystal violet staining based assay; type: functional, cell-based

inhibition (Tubulin (Homo sapiens) [3]): 93.5%
inhibition (Tubulin (Homo sapiens) [5]): 77.6%
inhibition (Tubulin (Homo sapiens) [6]): Active
inhibition (Tubulin (Homo sapiens) [10]): Active
Cmax [13]: 6.88 µg/mL
AUC [20]: 5670 µg/L.hr
CL [21]: 1.76 L/h/kg
Activity (Tubulin (Homo sapiens) [22]): Dde
Tmax [26]: 8.4 min
Structure (SMILES): COC(=O)c1cc2c(cc1Nc1cc(OC)c(OC)c(OC)c1)OCCO2
Activity (HT-29 [1]): Active
Activity (A549 [2]): 85.2%
IC50 (HeLa): 35 nM
inhibition at 0.1 µM (HT-29 [4]): 100%
Activity (HT-29 [7]): Active
Activity (HT-29 [8]): Active
TGI (HT-29 [9]): Dde
Activity (HT-29 [11]): Dde
Activity (A549 [12]): Dde
Activity (A549 [14]): Active
IC50 (HT-29 [15]): 23 nM
Activity (HT-29 [16]): Active
Activity (HT-29 [17]): Active
Activity (HT-29 [18]): Dde
Activity (HT-29 [19]): Dde
Activity (HT-29 [23]): Active
IC50 (MCF7): 140 nM
Activity [24]: Non-Toxic
Activity [25]: Non-Toxic
Activity (HT-29 [27]): 87.5%
Ratio IC50 [28]: 1.2
Activity (HT-29 [29]): 75.5%
Activity [30]: Non-Toxic
IC50 [31]: 180 nM
Ratio IC50 [32]: 1.3
Activity (HT-29 [33]): Active
Activity (HT-29 [34]): Active
Activity (HT-29 [35]): Dde
inhibition (HT-29 [36]): Active
